row,Structure (SMILES),melting point
1,"CCC(=S)NC[C@H]1CN(c2ccc(N3CCN(C(=O)COc4ccc(CN(C)C)cc4)CC3)c(F)c2)C(=O)O1 [Example 4, N-[((5S)-3{4-[4-({4-[(Dimethylamino)methyl]phenoxy}acetyl)piperazin-1-yl]-3-fluorophenyl}-2-oxo-1,3-oxazolidin-5-yl)methyl]propanethioamide]",163 to 164 °C
2,"CCC(=S)NC[C@H]1CN(c2ccc(N3CCN(C(=O)COc4ccc(CN5CCOCC5)cc4)CC3)c(F)c2)C(=O)O1 [Example 7, N-({(5S)-3-[3-Fluoro-4-(4-{[4-(morpholin-4-ylmethyl)phenoxy]acetyl}piperazin-1-yl)phenyl]-2-oxo-1,3-oxazolidin-5-yl}methyl)propanethioamide]",159 to 160 °C
3,"CC(=O)NC[C@H]1CN(c2ccc(N3CCN(C(=O)CCC(=O)c4ccc(CNC(=O)CN(C)C)cc4)CC3)c(F)c2)C(=O)O1 [Example 22, N^1-(4-{4-[4-(4-{(5S)-5-[(Acetylamino)methyl]-2-oxo-1,3-oxazolidin-3-yl}-2-fluorophenyl)piperazin-1-yl]-4-oxobutanoyl}benzyl)-N^2,N^2-dimethylglycinamide]",160 to 160.5 °C
4,"COc1ccc(CCCC(=O)N2CCN(c3ccc(N4C[C@H](CNC(C)=O)OC4=O)cc3F)CC2)cc1 [Example 41, N-{[(5S)-3-(3-Fluoro-4-{4-[4-(4-methoxyphenyl)butanoyl]piperazine-1-yl}phenyl)-2-oxo-1,3-oxazolidin-5-yl]methyl}acetamide]",164 to 165 °C
5,"CC(=O)NC[C@H]1CN(c2ccc(N3CCN(C(=O)CCCc4ccc(NC(=O)CN)cc4)CC3)c(F)c2)C(=O)O1 [Example 60, N-(4-{4-[4-(4-{(5S)-5-[(Acetylamino)methyl]-2-oxo-1,3-oxazolidin-3-yl}-2-fluorophenyl)-1-piperazinyl]-4-oxobutyl}phenyl)-2-aminoacetamide]",199 to 200 °C (dec.)
6,"CC(=O)NC[C@H]1CN(c2ccc(N3CCN(C(=O)CCC(=O)c4ccc(Br)cc4)CC3)c(F)c2)C(=O)O1 [Example 44, N-{[(5S)-3-(4-{4-[4-(4-Bromophenyl)-4-oxobutanoyl]-1-piperazinyl}-3-fluorophenyl)-2-oxo-1,3-oxazolidin-5-yl]methyl}acetamide]",197 to 198 °C
7,"CN(C)Cc1ccc(C(=O)CCC(=O)N2CCN(c3ccc(N4C[C@H](CNC(=S)C5CC5)OC4=O)cc3F)CC2)cc1 [Example 14, N-[((5S)-3-{4-[4-(4-{4-[(Dimethylamino)methyl]phenyl}-4-oxobutanoyl)-1-piperazinyl]-3-fluorophenyl}-2-oxo-1,3-oxazolidin-5-yl)methyl]cyclopropanecarbothioamide]",174 to 175 °C
8,"CC(=O)NC[C@H]1CN(c2ccc(N3CCN(C(=O)CCCc4ccc(O)cc4)CC3)c(F)c2)C(=O)O1 [Example 42, N-{[(5S)-3-(3-Fluoro-4-{4-[4-(4-hydroxyphenyl)butanoyl]piperazin-1-yl}phenyl)-2-oxo-1,3-oxazolidin-5-yl]methyl}acetamide]",119 to 120 °C (dec.)
9,"CC(=O)NC[C@H]1CN(c2ccc(N3CCN(C(=O)CN4C(=O)c5ccc(N)cc5C4=O)CC3)c(F)c2)C(=O)O1 [Example 70, N-{[(5S)-3-(4-{4-[(5-Amino-1,3-dioxo-1,3-dihydro-2H-isoindol-2-yl)acetyl]piperazin-1-yl}-3-fluorophenyl)-2-oxo-1,3-oxazolidin-5-yl]methyl}acetamide]",241 to 243 °C (dec.)
10,"CC(=O)NC[C@H]1CN(c2ccc(N3CCN(C(=O)CCC(=O)c4ccc(CN(C)C)cc4)CC3)c(F)c2)C(=O)O1 [Example 15, N-[((5S)-3-{4-[4-(4-{4-[(Dimethylamino)methyl]phenyl}-4-oxobutanoyl)-1-piperazinyl]-3-fluorophenyl}-2-oxo-1,3-oxazolidin-5-yl)methyl]acetamide]",190 to 192 °C
11,"CC(=S)NC[C@H]1CN(c2ccc(N3CCN(C(=O)CCC(=O)c4ccc(Cl)cc4)CC3)c(F)c2)C(=O)O1 [Example 50, N-{[(5S)-3-(4-{4-[4-(4-chlorophenyl)-4-oxobutanoyl]-1-piperazinyl}-3-fluorophenyl)-2-oxo-1,3-oxazolidin-5-yl]methyl}ethanethioamide]",215 to 216 °C (dec.)
12,"CCC(=S)NC[C@H]1CN(c2ccc(N3CCN(C(=O)COc4ccc(CN(CC)CC)cc4)CC3)c(F)c2)C(=O)O1 [Example 1, N-[((5S)-3-{4-[4-({4-[(Diethylamino)methyl]phenoxy}acetyl)piperazin-1-yl]-3-fluorophenyl}-2-oxo-1,3-oxazolidin-5-yl)methyl]propanethioamide]",98 °C
13,"CC(=O)NC[C@H]1CN(c2ccc(N3CCN(C(=O)CCC(=O)c4ccc(Cl)cc4)CC3)c(F)c2)C(=O)O1 [Example 49, N-{[(5S)-3-(4-{4-[4-(4-Chlorophenyl)-4-oxobutanoyl]-1-piperazinyl}-3-fluorophenyl)-2-oxo-1,3-oxazolidin-5-yl]methyl}acetamide]",208 to 209 °C
14,"CCC(=S)NC[C@H]1CN(c2ccc(N3CCN(C(=O)CCC(=O)c4ccc(CN5CCOCC5)cc4)CC3)c(F)c2)C(=O)O1 [Example 16, N-({(5S)-3-[3-Fluoro-4-(4-{4-[4-(4-morpholinylmethyl)phenyl]-4-oxobutanoyl}-1-piperazinyl)phenyl]-2-oxo-1,3-oxazolidin-5-yl}methyl)propanethioamide]",160 °C
